# Data taken from ChEMBL document CHEMBL1201862, “PubChem BioAssay data set” (2004).
#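 Interpolation was linear, between the two tested concentrations surrounding the appropriate level; five concentrations were tested over 48 hours in 96-well plates. GI50 is the concentration that inhibits growth by half.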 Active and inactive are the calls of the source. No stated cut-off is given here; in the data, active = GI50 up to about 1.1 µM and inactive = higher.
# Tests used:
# Experiment in all cases: inhibition of tumour cell growth, NCI panel, 48 h
# M14 = test system: M14
# 786-0 = test system: 786-0
# SNB-19 = test system: SNB-19
# SK-MEL-5 = test system: SK-MEL-5
# SF-539 = test system: SF-539
# KM-20L2 = test system: KM-20L2
# EKVX = test system: EKVX
# KM12 = test system: KM12
# HT-29 = test system: HT-29
# NCI-H226 = test system: NCI-H226
# SK-OV-3 = test system: SK-OV-3
# MOLT-4 = test system: MOLT-4
# HCT-15 = test system: HCT-15
# HCT-116 = test system: HCT-116
# CCRF-CEM = test system: CCRF-CEM
# SW-620 = test system: SW-620
# K562 = test system: K562
# HL-60 = test system: HL-60
# M19-MEL = test system: M19-MEL
# RPMI-8226 = test system: RPMI-8226
# SN12C = test system: SN12C
# U-251 = test system: U-251
# SR = test system: SR
# SK-MEL-28 = test system: SK-MEL-28
# SF-268 = test system: SF-268
# HOP-62 = test system: HOP-62
# OVCAR-8 = test system: OVCAR-8
# A549 = test system: A549
# DMS-114 = test system: DMS-114
# NCI-H23 = test system: NCI-H23
# LOX IMVI = test system: LOX IMVI
# UO-31 = test system: UO-31
# NCI-H522 = test system: NCI-H522
# IGROV-1 = test system: IGROV-1
# SF-295 = test system: SF-295
# UACC-257 = test system: UACC-257
# XF498 = test system: XF498
# COLO 205 = test system: COLO 205
# NCI-H460 = test system: NCI-H460
# HCC 2998 = test system: HCC 2998
# OVCAR-3 = test system: OVCAR-3
# Malme-3M = test system: Malme-3M
# ACHN = test system: ACHN
# DMS-273 = test system: DMS-273
# LXFL 529 = test system: LXFL 529
# UACC-62 = test system: UACC-62
# SNB-78 = test system: SNB-78
# TK-10 = test system: TK-10
# OVCAR-5 = test system: OVCAR-5
# SNB-75 = test system: SNB-75
# OVCAR-4 = test system: OVCAR-4
# DLD-1 = test system: DLD-1
# RXF 393 = test system: RXF 393
# SK-MEL-2 = test system: SK-MEL-2
# HOP-92 = test system: HOP-92
smiles,measurement,setting,value
CCCCc1c2c(nc3c1CCCC3=O)CCCC2,GI50,M14,> 100 µM (inactive)
same,GI50,786-0,> 100 µM (inactive)
same,GI50,SNB-19,> 100 µM (inactive)
same,GI50,SK-MEL-5,> 100 µM (inactive)
same,GI50,SF-539,> 100 µM (inactive)
same,GI50,KM-20L2,20 µM (inactive)
same,GI50,EKVX,> 100 µM (inactive)
same,GI50,KM12,> 100 µM (inactive)
same,GI50,HT-29,> 100 µM (inactive)
same,GI50,NCI-H226,18.3 µM (inactive)
same,GI50,SK-OV-3,> 100 µM (inactive)
same,GI50,MOLT-4,> 100 µM (inactive)
same,GI50,HCT-15,> 100 µM
same,GI50,HCT-116,> 100 µM (inactive)
same,GI50,CCRF-CEM,> 100 µM (inactive)
same,GI50,SW-620,> 100 µM (inactive)
same,GI50,K562,> 100 µM (inactive)
same,GI50,HL-60,> 100 µM (inactive)
same,GI50,M19-MEL,> 100 µM (inactive)
same,GI50,RPMI-8226,> 100 µM (inactive)
same,GI50,SN12C,> 100 µM (inactive)
same,GI50,U-251,> 100 µM (inactive)
same,GI50,SR,41.4 µM (inactive)
same,GI50,SK-MEL-28,> 100 µM (inactive)
same,GI50,SF-268,> 100 µM (inactive)
same,GI50,HOP-62,> 100 µM (inactive)
same,GI50,OVCAR-8,> 100 µM (inactive)
same,GI50,A549,> 100 µM (inactive)
same,GI50,DMS-114,> 100 µM (inactive)
same,GI50,NCI-H23,> 100 µM (inactive)
same,GI50,LOX IMVI,> 100 µM (inactive)
same,GI50,UO-31,> 100 µM (inactive)
same,GI50,NCI-H522,> 100 µM (inactive)
same,GI50,IGROV-1,> 100 µM (inactive)
same,GI50,SF-295,> 100 µM (inactive)
same,GI50,UACC-257,> 10 µM (inactive)
same,GI50,XF498,> 100 µM (inactive)
same,GI50,COLO 205,> 100 µM (inactive)
same,GI50,NCI-H460,> 100 µM (inactive)
same,GI50,HCC 2998,> 100 µM (inactive)
same,GI50,OVCAR-3,> 100 µM (inactive)
same,GI50,Malme-3M,50.2 µM (inactive)
same,GI50,ACHN,> 100 µM (inactive)
same,GI50,DMS-273,> 100 µM (inactive)
same,GI50,LXFL 529,> 100 µM (inactive)
Cc1cccc2c1Oc1cc(Cl)ccc1C2NC(=O)CN(C)C (stereo unspecified),GI50,M14,24 µM (inactive)
same,GI50,786-0,14.5 µM (inactive)
same,GI50,UACC-62,24.3 µM (inactive)
same,GI50,SNB-19,54 µM (inactive)
same,GI50,SK-MEL-5,21.6 µM (inactive)
same,GI50,SF-539,80.5 µM (inactive)
same,GI50,KM-20L2,20 µM (inactive)
same,GI50,EKVX,26.5 µM (inactive)
same,GI50,HT-29,36.6 µM (inactive)
same,GI50,NCI-H226,99.8 µM (inactive)
same,GI50,SNB-78,50.7 µM (inactive)
same,GI50,TK-10,> 100 µM (inactive)
same,GI50,SK-OV-3,73.8 µM (inactive)
same,GI50,MOLT-4,29.2 µM (inactive)
same,GI50,HCT-15,45.2 µM
same,GI50,HCT-116,27.5 µM (inactive)
same,GI50,CCRF-CEM,49.1 µM (inactive)
same,GI50,SW-620,66.4 µM (inactive)
same,GI50,K562,36 µM (inactive)
same,GI50,HL-60,17.1 µM (inactive)
same,GI50,M19-MEL,20.9 µM (inactive)
same,GI50,RPMI-8226,29.2 µM (inactive)
same,GI50,SN12C,63.1 µM (inactive)
same,GI50,OVCAR-5,> 100 µM (inactive)
same,GI50,SNB-75,21.1 µM (inactive)
same,GI50,SR,31.4 µM (inactive)
same,GI50,OVCAR-4,53.5 µM (inactive)
same,GI50,SK-MEL-28,27.1 µM (inactive)
same,GI50,SF-268,74.3 µM (inactive)
same,GI50,HOP-62,57.7 µM (inactive)
same,GI50,OVCAR-8,> 100 µM (inactive)
same,GI50,A549,> 100 µM (inactive)
same,GI50,DLD-1,58.3 µM (inactive)
same,GI50,DMS-114,34.9 µM (inactive)
same,GI50,NCI-H23,92 µM (inactive)
same,GI50,LOX IMVI,42.6 µM (inactive)
same,GI50,UO-31,28.8 µM (inactive)
same,GI50,RXF 393,26.5 µM (inactive)
same,GI50,IGROV-1,35.2 µM (inactive)
same,GI50,UACC-257,31.6 µM (inactive)
same,GI50,COLO 205,33.5 µM (inactive)
same,GI50,NCI-H460,33.8 µM (inactive)
same,GI50,HCC 2998,34.8 µM (inactive)
same,GI50,ACHN,22.8 µM (inactive)
same,GI50,DMS-273,28.8 µM (inactive)
same,GI50,LXFL 529,57.4 µM (inactive)
O=C1C(Cl)N(c2cccc([N+](=O)[O-])c2)C1c1c[nH]c2ccccc12 (stereo unspecified),GI50,M14,16.1 µM (inactive)
same,GI50,UACC-62,13.8 µM (inactive)
same,GI50,SNB-19,23.9 µM (inactive)
same,GI50,SK-MEL-2,14.4 µM (inactive)
same,GI50,SK-MEL-5,17 µM (inactive)
same,GI50,SF-539,15.3 µM (inactive)
same,GI50,KM-20L2,19.9 µM (inactive)
same,GI50,EKVX,28.4 µM (inactive)
same,GI50,KM12,20.2 µM (inactive)
same,GI50,HT-29,17.1 µM (inactive)
same,GI50,TK-10,20.4 µM (inactive)
same,GI50,SK-OV-3,11.1 µM (inactive)
same,GI50,MOLT-4,8.38 µM (inactive)
same,GI50,HCT-116,19.2 µM (inactive)
same,GI50,CCRF-CEM,4.61 µM (inactive)
same,GI50,SW-620,21.7 µM (inactive)
same,GI50,K562,19 µM (inactive)
same,GI50,HL-60,22.3 µM (inactive)
same,GI50,M19-MEL,18.1 µM (inactive)
same,GI50,RPMI-8226,16.9 µM (inactive)
same,GI50,SN12C,28.6 µM (inactive)
same,GI50,OVCAR-5,11.9 µM (inactive)
same,GI50,U-251,22.2 µM (inactive)
same,GI50,SNB-75,22.9 µM (inactive)
same,GI50,SR,10.7 µM (inactive)
same,GI50,OVCAR-4,18.1 µM (inactive)
same,GI50,SK-MEL-28,23.7 µM (inactive)
same,GI50,SF-268,29.6 µM (inactive)
same,GI50,HOP-62,17.1 µM (inactive)
same,GI50,OVCAR-8,23.1 µM (inactive)
same,GI50,A549,22.1 µM (inactive)
same,GI50,HOP-92,19 µM (inactive)
same,GI50,DMS-114,15.1 µM (inactive)
same,GI50,NCI-H23,22.2 µM (inactive)
same,GI50,UO-31,17.5 µM (inactive)
same,GI50,RXF 393,12.9 µM (inactive)
same,GI50,NCI-H522,16 µM (inactive)
same,GI50,IGROV-1,16.4 µM (inactive)
same,GI50,SF-295,17.8 µM (inactive)
same,GI50,UACC-257,20.7 µM (inactive)
same,GI50,COLO 205,22.5 µM (inactive)
same,GI50,NCI-H460,12.1 µM (inactive)
same,GI50,OVCAR-3,20.5 µM (inactive)
same,GI50,Malme-3M,2.36 µM (inactive)
same,GI50,LXFL 529,6.25 µM (inactive)
